Experimental data reported in patent US9115133B2, “Substituted fused tricyclic compounds, compositions and medicinal applications thereof” (Advinus Therapeutics Limited, priority 2011, dated 2015).

Legend:
Assay type in all cases: biochemical
Settings in all cases: 200 μg/ml Poly Glu-Tyr (4:1), ATP 1 uM, 90 min room temperature, luminescence
[1] = biological target: T1, Recombinant JAK2 (Amino acids 808-1132) (Homo sapiens, UniProt O60674); assay: Kinase-Glo Luminescent Kinase Assay, recombinant JAK2
T1 construct: JAK2 (Amino acids 808-1132; NM_004972.3); made in house; host or cells: baculovirus expression system (Bac-to-Bac)
From the text: (§1) Recombinant JAK1 (Amino acids 850-1154; NM_002227.2), JAK2 (Amino acids 808-1132; NM_004972.3) and JAK3 (Amino acids 781-1124; NM_000215.3) used in the studies were expressed using Invitrogen's Bac-to-Bac baculovirus expression system according to manufacturer's instructions. Adenosine 5′-triphosphate was obtained from Sigma Aldrich chemicals (Cat # A7699). Poly Glu-Tyr (4:1) sodium salt was obtained from Sigma Aldrich (Cat # P0275), Kinase Glo® Luminescent Kinase assay kit was obtained from Promega (Cat # V6713) Kinase activity was assessed by Promega Kinase-Glo® Luminescent Kinase Assay kit using 200 μg/ml Poly Glu-Tyr (4:1) as substrate and ATP at 1 uM concentration. The reactions were carried out in 384 well plates in total reaction volume of 20 uL. Reaction mixtures contained 50 mM HEPES pH 7.4, 5 mM MgCl2, 1 mM DTT, 0.01% BSA, 0.01% Tween 20. Kinase was pre-incubated with compounds or 1% DMSO for 5 min before addition of substrate and ATP to check for inhibition. Kinase reactions were carried out at room temperature for 90 min. The reactions were stopped by adding 5 μl of Kinase Glo® reagent & 10 μl of reaction mixture followed by measuring luminescence. The luminescent signal is correlated with the amount of ATP present at the end of kinase reaction and is inversely correlated with the amount of kinase activity. For each data point, % inhibition is calculated based on uninhibited reaction (without compound) which is considered as 100% activity over no enzyme or substrate controls. Dose response data is then fit using a four parameter logistic equation using Graph-pad Prism 5 software to determine inhibition constant 50 (IC50).

[2] = biological target: T2, Recombinant JAK1 (Amino acids 850-1154) (Homo sapiens, UniProt P23458); assay: Kinase-Glo Luminescent Kinase Assay, recombinant JAK1
T2 construct: Recombinant JAK1 (Amino acids 850-1154; NM_002227.2); made in house; host or cells: baculovirus expression system (Bac-to-Bac)
From the text: as §1

[3] = biological target: T3, Recombinant JAK3 (Amino acids 781-1124) (Homo sapiens, UniProt P52333); assay: Kinase-Glo Luminescent Kinase Assay, recombinant JAK3
T3 construct: JAK3 (Amino acids 781-1124; NM_000215.3); made in house; host or cells: baculovirus expression system (Bac-to-Bac)
From the text: as §1

T3 sequence (P52333 781-1124): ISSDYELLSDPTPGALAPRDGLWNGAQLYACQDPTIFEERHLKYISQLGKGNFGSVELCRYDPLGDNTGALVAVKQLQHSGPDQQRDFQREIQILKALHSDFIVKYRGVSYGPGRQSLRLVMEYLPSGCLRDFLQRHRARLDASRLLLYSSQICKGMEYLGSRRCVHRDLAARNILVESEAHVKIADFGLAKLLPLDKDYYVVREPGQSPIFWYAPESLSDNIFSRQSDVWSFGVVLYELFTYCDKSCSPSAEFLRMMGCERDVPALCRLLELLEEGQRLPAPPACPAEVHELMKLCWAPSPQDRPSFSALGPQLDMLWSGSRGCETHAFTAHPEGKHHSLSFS
T2 sequence (P23458 850-1154): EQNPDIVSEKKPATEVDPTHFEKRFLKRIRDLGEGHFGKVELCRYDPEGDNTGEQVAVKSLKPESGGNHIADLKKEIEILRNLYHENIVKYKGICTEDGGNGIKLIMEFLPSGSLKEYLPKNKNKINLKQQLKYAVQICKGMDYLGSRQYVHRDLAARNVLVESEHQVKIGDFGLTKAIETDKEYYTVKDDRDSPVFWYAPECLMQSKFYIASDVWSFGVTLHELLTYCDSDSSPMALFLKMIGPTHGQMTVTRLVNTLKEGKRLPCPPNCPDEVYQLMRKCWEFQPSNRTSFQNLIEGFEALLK
T1 sequence (O60674 808-1132): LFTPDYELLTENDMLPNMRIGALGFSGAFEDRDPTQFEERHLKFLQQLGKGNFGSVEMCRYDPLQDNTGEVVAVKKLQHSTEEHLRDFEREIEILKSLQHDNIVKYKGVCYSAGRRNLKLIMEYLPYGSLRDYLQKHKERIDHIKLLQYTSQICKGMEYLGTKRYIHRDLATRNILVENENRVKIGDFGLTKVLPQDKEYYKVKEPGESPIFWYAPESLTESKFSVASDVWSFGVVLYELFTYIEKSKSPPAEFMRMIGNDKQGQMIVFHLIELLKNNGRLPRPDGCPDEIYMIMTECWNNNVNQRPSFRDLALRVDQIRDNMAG

Row | IC50 [1] | IC50 [2] | IC50 [3] | SMILES
1 | > 20 nM | > 20 nM | > 20 nM | CNC(=O)N1CCCC(c2ccnc3cnc4[nH]ccc4c23)C1 (stereo not drawn) [Ex. 50, N-methyl-3-(3H-pyrrolo[3,2-f][1,7]naphthyridin-9-yl)piperidine-1-carboxamide]
2 | 1 to 20 nM | 1 to 20 nM | > 20 nM | CS(=O)(=O)CC(=O)N1CCCC(c2ccnc3cnc4[nH]ccc4c23)C1 (stereo not drawn) [Ex. 12, 2-methylsulfonyl-1-[3-(3H-pyrrolo[3,2-f][1,7]naphthyridin-9-yl)-1-piperidyl]ethanone]
3 | > 20 nM | 1 to 20 nM | > 20 nM | CC(C)NC(=O)C1CCN(c2ccnc3cnc4[nH]ccc4c23)C1 (stereo not drawn) [Ex. 84, N-isopropyl-1-(3H-pyrrolo[3,2-f][1,7]naphthyridin-9-yl)pyrrolidine-3-carboxamide]
4 | > 20 nM | > 20 nM | > 20 nM | CC(C)NC(=O)N1CCCC(c2ncnc3cnc4[nH]ccc4c23)C1 (stereo not drawn) [Ex. 32, 3-(3H-3,4,6,8-Tetraaza-cyclopenta[a]naphthalen-9-yl)-piperidine-1-carboxylic acid isopropylamide]
5 | 1 to 20 nM | > 20 nM | > 20 nM | O=C(CC(F)(F)F)NC1CCCN(c2ccnc3cnc4[nH]ccc4c23)C1 (stereo not drawn) [Ex. 87, 3,3,3-trifluoro-N-[1-(3H-pyrrolo[3,2-f][1,7]naphthyridin-9-yl)-3-piperidyl] propanamide]
6 | 1 to 20 nM | 1 to 20 nM | 1 to 20 nM | c1cc(N2CCCC(OCC3CC3)C2)c2c(cnc3[nH]ccc32)n1 (stereo not drawn) [Ex. 56, 9-[3-(cyclopropylmethoxy)-1-piperidyl]-3H pyrrolo[3,2f][1,7] naphthyridine]
7 | > 20 nM | > 20 nM | > 20 nM | CC(C)NC(=O)C1CCCN(c2ccnc3cnc4[nH]ccc4c23)C1 (stereo not drawn) [Ex. 68, N-isopropyl-1-(3H-pyrrolo[3,2-f][1,7]naphthyridin-9-yl)piperidine-3-carboxamide]
8 | > 20 nM | > 20 nM | > 20 nM | CCNC(=O)C1CCCN(c2ccnc3cnc4[nH]ccc4c23)C1 (stereo not drawn) [Ex. 72, N-ethyl-1-(3H-pyrrolo[3,2-f][1,7]naphthyridin-9-yl)piperidine-3-carboxamide]
9 | 1 to 20 nM | 1 to 20 nM | 1 to 20 nM | O=S(=O)(NC1CCCN(c2ccnc3cnc4[nH]ccc4c23)C1)C(F)(F)F (stereo not drawn) [Ex. 81, 1,1,1-trifluoro-N-[1-(3H-pyrrolo[3,2-f][1,7]naphthyridin-9-yl)-3-piperidyl]methane sulfonamide]
10 | > 20 nM | 1 to 20 nM | > 20 nM | N#CCS(=O)(=O)N1CCN(c2ccnc3cnc4[nH]ccc4c23)CC1 [Ex. 105, 2-[4-(3H-pyrrolo[3,2-f][1,7]naphthyridin-9-yl)piperazin-1-yl]sulfonylacetonitrile]
11 | > 20 nM | > 20 nM | > 20 nM | CC(C)CC(=O)N1CCCC(c2ncnc3cnc4[nH]ccc4c23)C1 (stereo not drawn) [Ex. 21, 3-Methyl-1-[3-(3H-3,4,6,8-tetraazacyclopenta[a]naphthalen-9-yl)-piperidin-1-yl]-butan-1-one]
12 | > 20 nM | > 20 nM | > 20 nM | CC(C)NC(=O)N1CCCC(c2ccnc3cnc4[nH]ccc4c23)C1 (stereo not drawn) [Ex. 13, N-isopropyl-3-(3H-pyrrolo[3,2-f][1,7]naphthyridin-9-yl)piperidine-1-carboxamide]
13 | 1 to 20 nM | 1 to 20 nM | > 20 nM | O=C(CC(F)(F)F)N1CCC(c2ccnc3cnc4[nH]ccc4c23)C1 (stereo not drawn) [Ex. 15, 3,3,3-trifluoro-1-[3-(3H-pyrrolo[3,2-f][1,7]naphthyridin-9-yl)pyrrolidin-1-yl]propan-1-one]
14 | 1 to 20 nM | > 20 nM | 1 to 20 nM | CC(C)/C(=N\C#N)N1CCCC(c2ccnc3cnc4[nH]ccc4c23)C1 (stereo not drawn) [Ex. 43, (E)-[2-methyl-1-[3-(3H-pyrrolo[3,2-f][1,7]naphthyridin-9-yl)-1-piperidyl]propylidene]cyanamide]
15 | > 20 nM | > 20 nM | > 20 nM | O=C(NC1CC1)[C@@H]1CCCN(c2ccnc3cnc4[nH]ccc4c23)C1 [Ex. 61B, (3R)-N-cyclopropyl-1-(3H-pyrrolo[3,2-f][1,7]naphthyridin-9-yl)piperidine-3-carboxamide]
16 | > 20 nM | > 20 nM | > 20 nM | O=C(CC(F)(F)F)N1CC[C@H](c2ccnc3cnc4[nH]ccc4c23)C1 [Ex. 15A, (R)3,3,3-trifluoro-1-[3-(3H-pyrrolo[3,2-f][1,7]naphthyridin-9-yl)pyrrolidin-1-yl]propan-1-one]
17 | > 20 nM | > 20 nM | > 20 nM | N#CCC(=O)N1CCC[C@H](c2ccnc3cnc4[nH]ccc4c23)C1 [Ex. 1A, (R)3-oxo-3-[3-(3H-pyrrolo[3,2-f][1,7]naphthyridin-9-yl)-1-piperidyl]propanenitrile]
18 | > 20 nM | > 20 nM | > 20 nM | CC(C)S(=O)(=O)N1CCCC(c2ccnc3cnc4[nH]ccc4c23)C1 (stereo not drawn) [Ex. 11, 9-(1-isopropylsulfonyl-3-piperidyl)-3H-pyrrolo[3,2-][1,7]naphthyridine]
19 | 1 to 20 nM | 1 to 20 nM | 1 to 20 nM | N#CCC(=O)N1CCCC(c2ncnc3cnc4[nH]ccc4c23)C1 (stereo not drawn) [Ex. 23, 3-Oxo-3-[3-(3H-3,4,6,8-tetraazacyclopenta[a]naphthalen-9-yl)-piperidin-1-yl]-propionitrile]
20 | > 20 nM | > 20 nM | > 20 nM | O=C(NC1CC1)C1CCN(c2ccnc3cnc4[nH]ccc4c23)C1 (stereo not drawn) [Ex. 85, N-cyclopropyl-1-(3H-pyrrolo[3,2-f][1,7]naphthyridin-9-yl)pyrrolidine-3-carboxamide]
21 | 1 to 20 nM | 1 to 20 nM | 1 to 20 nM | CC(C)/C(=N\C#N)N1CCC[C@@H](c2ccnc3cnc4[nH]ccc4c23)C1 [Ex. 43B, (S)(E)-[2-methyl-1-[3-(3H-pyrrolo[3,2-f][1,7]naphthyridin-9-yl)-1-piperidyl]propylidene]cyanamide]
22 | 1 to 20 nM | 1 to 20 nM | < 1 nM | N#CCC(=O)N1CCC[C@@H](c2ccnc3cnc4[nH]ccc4c23)C1 [Ex. 1B, (S)3-oxo-3-[3-(3H-pyrrolo[3,2-f][1,7]naphthyridin-9-yl)-1-piperidyl]propanenitrile]
23 | > 20 nM | > 20 nM | > 20 nM | O=C(CC(F)(F)F)N1CCC[C@@H](c2ncnc3cnc4[nH]ccc4c23)C1 [Ex. 24A, (R)3,3,3-Trifluoro-1-[3-(3H-3,4,6,8-tetraazacyclopenta[a]naphthalen-9-yl)-piperidin-1-yl]-propan-1-one]
24 | 1 to 20 nM | 1 to 20 nM | > 20 nM | CS(=O)(=O)N1CCC(c2ccnc3cnc4[nH]ccc4c23)C1 (stereo not drawn) [Ex. 20, 9-(1-methylsulfonylpyrrolidin-3-yl)-3H-pyrrolo[3,2-f][1,7]naphthyridine]
25 | 1 to 20 nM | 1 to 20 nM | > 20 nM | CCS(=O)(=O)N1CCC(c2ccnc3cnc4[nH]ccc4c23)C1 (stereo not drawn) [Ex. 19, 9-(1-ethylsulfonylpyrrolidin-3-yl)-3H-pyrrolo[3,2-f][1,7]naphthyridine]
26 | 1 to 20 nM | 1 to 20 nM | 1 to 20 nM | O=C(CC(F)(F)F)N1CCC[C@H](c2ccnc3cnc4[nH]ccc4c23)C1 [Ex. 4A, (R)3,3,3-trifluoro-1-[3-(3H-pyrrolo[3,2-f][1,7]naphthyridin-9-yl)-1-piperidyl]propan-1-one]
27 | > 20 nM | > 20 nM | 1 to 20 nM | c1cc(N2CCC(OCC3CC3)CC2)c2c(cnc3[nH]ccc32)n1 [Ex. 60, 9-[4-(cyclopropylmethoxy)-1-piperidyl]-3H-pyrrolo[3,2-f][1,7]naphthyridine]
28 | > 20 nM |  | > 20 nM | O=C(NC1CC1)N1CCCC(c2ccnc3cnc4[nH]ccc4c23)C1 (stereo not drawn) [Ex. 46, N-cyclopropyl-3-(3H-pyrrolo[3,2-f][1,7]naphthyridin-9-yl)piperidine-1-carboxamide]
29 | 1 to 20 nM |  | > 20 nM | CC(C)S(=O)(=O)NC1CCN(c2ccnc3cnc4[nH]ccc4c23)C1 (stereo not drawn) [Ex. 92, N-[1-(3H-pyrrolo[3,2-f][1,7]naphthyridin-9-yl)pyrrolidin-3-yl]propane-2-sulfonamide]
30 | 1 to 20 nM |  | 1 to 20 nM | N#CCC(=O)N1CCC[C@H](c2ncnc3cnc4[nH]ccc4c23)C1 [Ex. 23B, (S)3-Oxo-3-[3-(3H-3,4,6,8-tetraazacyclopenta[a]naphthalen-9-yl)-piperidin-1-yl]-propionitrile]
